Among the data in paper PMC8815882, “Screening the pandemic response box identified benzimidazole carbamates, Olorofim and ravuconazole as promising drug candidates for the treatment of eumycetoma” (PLoS Neglected Tropical Diseases, 2022) are activity and Percent fungal survival values, retold here.

The subject of this test is M. mycetomatis genome strain MM55. Description: CLSI M38-A2 based in vitro susceptibility screening (XTT or resazurin), growth at fixed concentration. The format is cell-based, Madurella mycetomatis. The settings on record: Madurella mycetomatis.
[1] abbreviates: 25 uM, mean of three, M. mycetomatis MM55, read-out: Percentage survival at 25um, 25 uM mean.
Where [2] appears, read: 25 uM, replicate A, M. mycetomatis MM55, read-out: Percentage survival at 25um, 25 um A.
Setting [3] is: 25 uM, replicate B, M. mycetomatis MM55, read-out: Percentage survival at 25um, 25 uM B.
The mark [4] stands for this setting: 25 uM, replicate C, M. mycetomatis MM55, read-out: Percentage survival at 25um, 25 uM C.
Setting [5] is: mean of three, M. mycetomatis MM55, read-out: Percentage survival at 100um, 100 uM mean.
Where [6] appears, read: replicate 1, M. mycetomatis MM55, read-out: Percentage survival at 100um, 100 uM A (first replicate column).
The mark [7] stands for this setting: replicate 2, M. mycetomatis MM55, read-out: Percentage survival at 100um, 100 uM A (second replicate column).
The mark [8] stands for this setting: replicate 3, M. mycetomatis MM55, read-out: Percentage survival at 100um, 100 uM A (third replicate column).
Setting [9] is: 25 uM, mean, read-out: Percentage survival at 25um, 25 uM mean.
Where [10] appears, read: 25 uM, replicate A, read-out: Percentage survival at 25um, 25 um A.
Setting [11] is: 25 uM, replicate B, read-out: Percentage survival at 25um, 25 uM B.
Where [12] appears, read: 25 uM, replicate C, read-out: Percentage survival at 25um, 25 uM C.
The mark [13] stands for this setting: mean, read-out: Percentage survival at 100um, 100 uM mean.
Setting [14] is: replicate (first column), read-out: Percentage survival at 100um, 100 uM A.
Setting [15] is: replicate (second column), read-out: Percentage survival at 100um, 100 uM A.
The mark [16] stands for this setting: replicate (third column), read-out: Percentage survival at 100um, 100 uM A.
Setting [17] is: 25 uM, mean of replicates, MM55, read-out: Percentage survival at 25um, 25 uM mean.
Where [18] appears, read: 25 uM, replicate A, MM55, read-out: Percentage survival at 25um, 25 um A.
[19] abbreviates: 25 uM, replicate B, MM55, read-out: Percentage survival at 25um, 25 uM B.
[20] abbreviates: 25 uM, replicate C, MM55, read-out: Percentage survival at 25um, 25 uM C.
Setting [21] is: mean of replicates, MM55, read-out: Percentage survival at 100um, 100 uM mean.
Where [22] appears, read: replicate 1, MM55, read-out: Percentage survival at 100um, 100 uM A.
Where [23] appears, read: replicate 2, MM55, read-out: Percentage survival at 100um, 100 uM A.
[24] abbreviates: replicate 3, MM55, read-out: Percentage survival at 100um, 100 uM A.
[25] abbreviates: 25 uM, mean of three replicates, read-out: Percentage survival at 25um, 25 uM mean.
[26] abbreviates: first replicate column, read-out: Percentage survival at 100um, 100 uM A.
[27] abbreviates: mean of three replicates, read-out: Percentage survival at 100um, 100 uM mean.
The mark [28] stands for this setting: second replicate column, read-out: Percentage survival at 100um, 100 uM A.
[29] abbreviates: third replicate column, read-out: Percentage survival at 100um, 100 uM A.
The mark [30] stands for this setting: 25 uM, mean of replicates, read-out: Percentage survival at 25um, 25 uM mean.
The mark [31] stands for this setting: mean of replicates, read-out: Percentage survival at 100um, 100 uM mean.
The mark [32] stands for this setting: replicate 1, read-out: Percentage survival at 100um, 100 uM A.
[33] abbreviates: replicate 2, read-out: Percentage survival at 100um, 100 uM A.
Setting [34] is: replicate 3, read-out: Percentage survival at 100um, 100 uM A.

The structures appear in SMILES notation. Where two headings read alike, the source gives them in different places.

For `CC(C)(C)c1ccc(OCCn2nc(C(=O)O)c3ccccc3c2=O)cc1` [MMV1634387], the activity at 25 µM turned out to be 81.2% under setting [1], 89.9% under setting [2], 84.5% under setting [3] and 69.2% under setting [4]. For the same compound, the activity at 100 µM by setting is: under setting [5], 66.6%; under setting [6], 80.6%; under setting [8], 81.3%. The Percent fungal survival at 100 µM under setting [7] stood at 37.8%.
With `CC(C)c1ccc(COc2cccc(-c3cc([S+](C)[O-])c(C#N)c(=O)[nH]3)c2)cc1` (centres unmarked) [MMV1582497], the activity at 25 µM under setting [9] came to 61.3%, the activity at 25 µM under setting [10] amounted to 65%, the activity at 25 µM under setting [11] turned out to be 60.9% and the activity at 25 µM under setting [12] turned out to be 58.1%. The activity at 100 µM is 40.1% under setting [13], 1.56% under setting [14], 53.5% under setting [15] and 65.4% under setting [16].
Turning to `Cc1c(F)cccc1NC(=O)Nc1ccc(Cl)c(S(=O)(=O)[C@H]2CCCNC2)c1O` [MMV1581034], the activity at 25 µM under setting [17] is 83.9%, the activity at 25 µM under setting [18] is 82%, the activity at 25 µM under setting [19] was determined as 88.9% and the activity at 25 µM under setting [20] worked out at 80.7%. Further, the activity at 100 µM by setting is: under setting [21], 77.6%; under setting [22], 82.8%; under setting [23], 73.6%; under setting [24], 76.3%.
Regarding `O=C(O)c1cc(-c2ccccc2)nc2ccccc12` [MMV018362], the activity at 25 µM came out at 91.7% under setting [25], 97.4% under setting [10], 94.7% under setting [11] and 83% under setting [12]. Further, the activity at 100 µM was 91% under setting [26], 87.9% under setting [27], 79.7% under setting [28] and 93.1% under setting [29].
Take `O=C(Nc1ccc(F)cc1)c1nn(-c2ccccc2)c(=O)cc1Cl` [MMV1578555]: the activity at 25 µM was 76.7% under setting [30], 84.2% under setting [10], 79.1% under setting [11] and 66.7% under setting [12]. The activity at 100 µM worked out at 1.51% under setting [31], 0.758% under setting [32], 0.453% under setting [33] and 3.31% under setting [34].
With `CCNC(=O)Nc1cc2c(-c3ccnc(C)c3)ccc(CNC(=O)OC)c2cn1` [MMV1634390], the activity at 25 µM was 86.2% under setting [1], 98.4% under setting [2], 81% under setting [3] and 79.2% under setting [4]. For the same compound, the activity at 100 µM runs as follows: under setting [5], 52.4%; under setting [6], 60.4%; under setting [8], 89.5%. For the same compound, the Percent fungal survival at 100 µM under setting [7] was 7.35%.
As for `CC[C@@H](CO)NCCN[C@@H](CC)CO` [MMV687801], the activity at 25 µM under setting [30] was found to be 87.9%, the activity at 25 µM under setting [10] worked out at 86.9%, the activity at 25 µM under setting [11] is 87.9% and the activity at 25 µM under setting [12] was 88.8%. Further, the activity at 100 µM is, setting by setting: under setting [31], 85.7%; under setting [32], 96.9%; under setting [33], 79.4%; under setting [34], 80.8%.
With `CN(C)CC(=O)Nc1ccc2[nH]c(=O)c3ccccc3c2c1` [MMV1580480], the activity at 25 µM under setting [17] is 94.3%, the activity at 25 µM under setting [18] worked out at 106%, the activity at 25 µM under setting [19] was 107% and the activity at 25 µM under setting [20] came out at 70.4%. Also, the activity at 100 µM amounted to 76.4% under setting [21], 87.1% under setting [22], 63.4% under setting [23] and 78.7% under setting [24].
With `Clc1cc2nc(C3CCNCC3)n(Cc3ccc(CNCCc4cnc[nH]4)cc3)c2cc1Cl` [MMV1580842], the activity at 25 µM stood at 86.1% under setting [1], 92.3% under setting [2], 94.9% under setting [3] and 71.1% under setting [4]. The activity at 100 µM runs as follows: under setting [5], 66.3%; under setting [6], 60.7%; under setting [8], 64.1%. Further, the Percent fungal survival at 100 µM under setting [7] was found to be 74.3%.
Regarding `CCCCCOc1ccc(/C=C2\Oc3c(ccc(O)c3O)C2=O)c(O)c1` [MMV1580851], the activity at 25 µM under setting [1] amounted to 102%, the activity at 25 µM under setting [2] was 93.6%, the activity at 25 µM under setting [3] is 82.3% and the activity at 25 µM under setting [4] was determined as 129%. Moreover, the activity at 100 µM by setting is: under setting [5], 90%; under setting [6], 82.6%; under setting [8], 89%. For the same compound, under setting [7], the Percent fungal survival at 100 µM worked out at 98.4%.
Consider `Nc1cc(-c2nc3ccccc3[nH]2)n[nH]c1=O` [MMV975972], for which the activity at 25 µM under setting [25] was determined as 97%, the activity at 25 µM under setting [10] stood at 99%, the activity at 25 µM under setting [11] worked out at 101% and the activity at 25 µM under setting [12] was 90.7%. For the same compound, the activity at 100 µM is, setting by setting: under setting [27], 95.6%; (replicate 1, read-out: Percentage survival at 100um, 100 uM A (first replicate column)) 105%; (replicate 3, read-out: Percentage survival at 100um, 100 uM A (third replicate column)) 91.4%. For the same compound, under “replicate 2, read-out: Percentage survival at 100um, 100 uM A (second replicate column)”, the Percent fungal survival at 100 µM was 90.7%.
On to `CCNC(=O)Nc1cc(-c2ccccc2)c(-c2cncc(C(=O)O)c2)cn1` [MMV1593534], for which the activity at 25 µM is, setting by setting: under setting [9], 85.6%; under setting [10], 94.2%; under setting [11], 90.1%; under setting [12], 72.5%. For the same compound, the activity at 100 µM under setting [13] was determined as 53.4%, the activity at 100 µM under setting [14] was 4.59%, the activity at 100 µM under setting [15] amounted to 76.9% and the activity at 100 µM under setting [16] is 78.8%.
As for `NS(=O)(=O)c1ccc(NC(=O)NC(c2ccccc2)c2ccccc2)cc1` [MMV1579776], the activity at 25 µM was determined as 95.1% under setting [2]; 101% (read-out: Percentage survival at 25um, 25 uM B); 86.7% (read-out: Percentage survival at 25um, 25 uM C); 94.2% (read-out: Percentage survival at 25um, 25 uM mean). Besides, the activity at 100 µM stood at 97% under setting [5], 103% under setting [6], 98.7% under setting [7] and 89% under setting [8].
For `CCc1cc(Cc2cnc(N)nc2N)cc2c1N(C)CCC2C` (centres unmarked) [MMV1582490], the activity at 25 µM was found to be 67.6% under setting [30], 71.5% under setting [10], 64.7% under setting [11] and 66.5% under setting [12]. For the same compound, the activity at 100 µM is 69.5% under setting [31], 63.4% under setting [32], 83.5% under setting [33] and 61.6% under setting [34].
Consider `COc1ccc2c(c1OC)C(=O)OC2C1c2c(cc3c(c2OC)OCO3)CCN1C` (centres unmarked) [MMV002780], for which the activity at 25 µM by setting is: under setting [25], 82%; under setting [10], 86.6%; under setting [11], 81.3%; under setting [12], 78.1%. Besides, the activity at 100 µM is, setting by setting: under setting [26], 72.9%; under setting [27], 72.6%; under setting [28], 68.2%; under setting [29], 76.7%.
As to `CCc1ccc(C2CC(C(F)(F)F)n3ncc(C(=O)NCc4ccc(OC)cc4)c3N2)cc1` (centres unmarked) [MMV831201], the activity at 25 µM reads like this: under setting [30], 64.1%; under setting [10], 65%; under setting [11], 56.7%; under setting [12], 70.7%. Further, the activity at 100 µM by setting is: under setting [31], 67.5%; under setting [32], 62%; under setting [33], 63%; under setting [34], 77.5%.
